ChEMBL document CHEMBL1641450, “Non-covalent inhibitors of rhinovirus 3C protease” (Bioorg Med Chem Lett, 2011)
Converted amounts (≈) assume the structure as drawn. The source made the active and inactive calls. The calls are words filed in the database; no cut-off is given here.

Key:
[1] = Solubility of the compound; format: physicochemical
[2] = Binding affinity to Human rhinovirus 2 purified 15N-labeled 3C protease after 50 mins by NMR assay; design: species or system rhinovirus A2
rhinovirus A2 [3] = test: Inhibition of Human rhinovirus 2 purified 3C protease at 100 uM preincubated for 30 mins measured after 1 hrs by FRET assay
rhinovirus A2 [4] = test: Binding affinity to Human rhinovirus 2 purified 15N-labeled 3C protease at 500 uM after 50 mins by NMR assay
[5] = Inhibition of Human rhinovirus 2 purified 3C protease preincubated for 30 mins measured after 1 hrs by FRET assay; design: species or system rhinovirus A2

Structure (SMILES)	inhibition (rhinovirus A2 [3])	pIC50 [5]	pKd [2]	also measured
Oc1cc(-c2ccccc2)nc2ccccc12			3.7	solubility [1]: 100 µM (≈ 22.1 µg/mL)
CCOC(=O)CCc1ccc2[nH]c(-c3cccnc3)cc(=O)c2c1	0%			Activity (rhinovirus A2 [4]): inactive
O=c1cc(-c2cccnc2)[nH]c2cc(C(O)c3ccccc3)ccc12 (racemic)	80%	4.7		
N#Cc1ccc2[nH]c(-c3cccnc3)cc(=O)c2c1	50%	4		
c1ccc(-c2ccc3ccccc3n2)cc1 [2-PHENYLQUINOLINE]			< 3	
Cc1cc2[nH]c(-c3ccccc3)cc(=O)n2n1	43%			solubility [1]: > 900 µM
O=c1cc(-c2cccnc2)[nH]c2cc(Cc3ccccc3)ccc12	100%	5		solubility [1]: 1 µM (≈ 0.312 µg/mL)
O=C(O)/C=C/c1ccc2[nH]c(-c3cccnc3)cc(=O)c2c1	70%	4.2		
CCOC(=O)/C=C/c1ccc2[nH]c(-c3cccnc3)cc(=O)c2c1	> 90%	5.3		
Cn1c(-c2ccccc2)cc(=O)c2ccccc21			3	
Nc1cc(-c2ccccc2)nc2ccccc12			3	
COc1cc(-c2ccccc2)nc2ccccc12			< 3	
O=c1cc(-c2ccccc2)oc2ccccc12 [FLAVONE]			3	

Continued, in another order:

inhibition (rhinovirus A2 [3])	pIC50 [5]	Structure (SMILES)	pKd [2]	also measured
< 10%		COc1ccc2c(=O)cc(-c3cccnc3)[nH]c2c1		
40%		CNC(=O)c1ccc2c(=O)cc(-c3cccnc3)[nH]c2c1		
25%		CC(=O)c1ccc2[nH]c(-c3cccnc3)cc(=O)c2c1		
40%		Cc1ccc2c(=O)cc(-c3cccnc3)[nH]c2c1		
45%		CNC(=O)Cc1ccc2c(=O)cc(-c3cccnc3)[nH]c2c1		
35%		O=c1cc(-c2cccnc2)[nH]c2ccccc12	3.5	solubility [1]: > 1300 µM
> 95%	6	O=Cc1ccc2[nH]c(-c3cccnc3)cc(=O)c2c1		
